From article PMC6680701, “Brain Delivery of Thyrotropin-Releasing Hormone via a Novel Prodrug Approach” (Pharmaceutics, 2019)
Square brackets hold non-standard residues; d marks the D form. Peptide text beside a SMILES is read from it. ξ: configuration not given here. ξGly(decyl) = CCCCCCCCCCC(N)C(=O)O

Experiments:
[1] = In vitro metabolic stability in plasma; format: in vitro ADME; conditions: male CD-1 mouse plasma, 10 µM test compound, n = 3, ± SD; for half-life: mouse, plasma, read-out: t1/2 in Plasma
Protocol: (§1) Metabolic stability studies were carried out as reported before using freshly made brain homogenate (20% w/v) and plasma at 37 °C, in triplicate. For obtaining brain homogenates, a Bead Bug microtube homogenizer (Benchmark Scientific, Edison, NJ, USA) was used. For obtaining plasma, blood was collected in BD Vacutainer® Sodium Heparin tubes (Becton, Dickinson and Co., Franklin Lakes, NJ, USA) followed by centrifugation. Each biological matrix was spiked with compound (1) or TRH to create 10 µM solutions. KYP-2047, a POP inhibitor, was used in selected experiments at 50 µM concentration. Sample aliquots (100 µL) of TRH-containing matrices were removed after 2, 4, 6, 8, 10, 15, and 30 min, while sample aliquots (100 µL) of prodrug-containing matrices were obtained at 5, 10, 20, 30, 40, 60, 90, 120, and 210 min. Sample aliquots were added to 200 µL of acetic acid solution (20% v/v) in acetonitrile, thoroughly vortexed and, then, centrifuged before LC–MS/MS analysis. For LC separation, a Kinetex-C8 column (10 cm × 4.6 mm i.d., dp = 2.6 µm; Phenomenex; Torrance, CA, USA) with the eluent mixed from (A) H2O with 0.1% (v/v) formic acid and (B) acetonitrile with 0.1% (v/v) formic acid, flow rate of 400 µL/min, and gradient elution by a 10-min linear program from 0% B to 90% B were employed. Half-life (t1/2) values were calculated by assuming pseudo-first-order degradation.

[2] = In vitro metabolic stability in brain homogenate; format: in vitro ADME; conditions: mouse, male CD-1 mouse brain homogenate, 10 µM test compound
Protocol: as §1

[3] = 37 °C, n = 3, ± SD, read-out: t1/2 in 20% (w/v) Brain Homogenate

Row | SMILES | half-life ([1]; 37 °C) | half-life ([1]; with POP inhibitor KYP-2047 at 50 µM) | t1/2 in Plasma ([1]; with POP inhibitor KYP-2047 at 50 µM, listed as prodrug) | half-life [2, 3] | half-life ([2]; with POP inhibitor KYP-2047 at 50 µM, n = 3, read-out: t1/2 in 20% (w/v) Brain Homogenate)
1 | CCCCCCCCCCC(N)C(=O)NC(CCCCCCCCCC)C(=O)N1CCC[C@H]1C(=O)N1CCC[C@H]1C(=O)N[C@@H](CCC(N)=O)C(=O)N[C@@H](Cc1c[nH]cn1)C(=O)N1CCC[C@H]1C(N)=O (stereo partly drawn) [(1), C12-C12-Pro-Pro-Gln-His-Pro-NH2] (H-[ξGly(decyl)][ξGly(decyl)]PPQHP-NH2) | 1.67 ± 0.117 h | 1.92 ± 0.217 h | did not change | 0.783 ± 0.1 h | > 24 h
2 | NC(=O)[C@@H]1CCCN1C(=O)[C@H](Cc1cnc[nH]1)NC(=O)[C@@H]1CCC(=O)N1 [TRH, pGlu-His-Pro-NH2, reference compound] | ~0.117 h | – | – | < 0.0833 h | –
